The inhibition is the percentage by which the read-out fell short of the control. Usually Emax stands for the size of the effect at its maximum, as opposed to the concentration needed. As usually defined, the Ki is the dissociation constant of the complex between target and ligand, obtained from inhibition or displacement.

Each structure is given as a SMILES string.

In experiment [1] the target is Delta-type opioid receptor (Homo sapiens) (UniProt P41143). Nature of the experiment: Inhibition of DOR receptor (unknown origin). The conditions noted are these: concentration not given here.
Sequence of Delta-type opioid receptor (Homo sapiens) (P41143 whole entry): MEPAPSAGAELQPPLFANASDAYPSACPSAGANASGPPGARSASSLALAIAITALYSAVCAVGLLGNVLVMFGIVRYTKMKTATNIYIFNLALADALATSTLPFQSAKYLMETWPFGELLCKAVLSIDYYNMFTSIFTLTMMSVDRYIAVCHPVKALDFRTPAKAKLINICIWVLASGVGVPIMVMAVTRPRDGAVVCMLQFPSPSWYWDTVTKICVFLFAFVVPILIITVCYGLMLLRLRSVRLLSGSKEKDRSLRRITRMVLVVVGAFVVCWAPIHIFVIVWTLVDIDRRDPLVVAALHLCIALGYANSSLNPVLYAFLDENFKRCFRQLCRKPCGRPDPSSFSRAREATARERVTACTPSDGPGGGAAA
Experiment [2] addresses T1, 5-hydroxytryptamine receptor 2C (Homo sapiens) (UniProt P28335).
T1 sequence (whole entry): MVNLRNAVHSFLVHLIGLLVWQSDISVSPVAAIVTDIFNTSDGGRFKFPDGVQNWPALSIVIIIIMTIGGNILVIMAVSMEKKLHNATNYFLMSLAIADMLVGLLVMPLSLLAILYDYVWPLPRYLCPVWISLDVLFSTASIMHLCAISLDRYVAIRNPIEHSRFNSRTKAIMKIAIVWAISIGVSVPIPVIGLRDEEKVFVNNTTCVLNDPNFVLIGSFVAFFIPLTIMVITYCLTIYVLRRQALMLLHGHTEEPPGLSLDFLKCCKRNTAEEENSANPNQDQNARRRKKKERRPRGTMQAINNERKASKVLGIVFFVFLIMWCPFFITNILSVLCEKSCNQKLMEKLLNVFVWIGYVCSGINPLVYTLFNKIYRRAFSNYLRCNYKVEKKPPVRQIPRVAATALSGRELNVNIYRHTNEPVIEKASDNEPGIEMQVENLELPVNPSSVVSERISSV
Nature of the experiment: Agonist activity at human 5HT2C receptor stably expressed in Flp-In-T-REx-293 cells assessed as maximal Gq-mediated calcium flux by Fluo-4 direct dye based FLIPR Tetra assay relative to control. The format is functional, cell-based. The conditions noted are these: filed as agonist. (Calcium flux is commonly read through the fluorescence of an indicator in the cells.)

Experiment [3] deals with 5-hydroxytryptamine receptor 1E (Homo sapiens, UniProt P28566). Nature of the experiment: Inhibition of 5HT1E receptor (unknown origin). Conditions: concentration not given here.
Sequence of 5-hydroxytryptamine receptor 1E (P28566 whole entry): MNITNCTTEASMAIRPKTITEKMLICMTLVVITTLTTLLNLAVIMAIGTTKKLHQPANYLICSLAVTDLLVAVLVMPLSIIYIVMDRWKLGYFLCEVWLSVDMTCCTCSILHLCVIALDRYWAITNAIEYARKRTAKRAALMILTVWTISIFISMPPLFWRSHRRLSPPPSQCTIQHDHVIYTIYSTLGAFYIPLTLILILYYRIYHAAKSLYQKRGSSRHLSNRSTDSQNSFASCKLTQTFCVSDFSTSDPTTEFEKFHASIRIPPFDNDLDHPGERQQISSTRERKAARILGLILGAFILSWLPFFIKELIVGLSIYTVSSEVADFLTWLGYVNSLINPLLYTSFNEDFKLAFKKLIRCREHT
Experiment [4] addresses Histamine H4 receptor (Homo sapiens) (UniProt Q9H3N8). In words: Inhibition of H4 receptor (unknown origin). Conditions: concentration not given here.
Experiment [5] deals with Sigma intracellular receptor 2 (Homo sapiens, UniProt Q5BJF2). In words: Binding affinity to sigma 2 receptor (unknown origin) assessed as inhibition constant.
Sequence of Sigma intracellular receptor 2 (Q5BJF2 whole entry): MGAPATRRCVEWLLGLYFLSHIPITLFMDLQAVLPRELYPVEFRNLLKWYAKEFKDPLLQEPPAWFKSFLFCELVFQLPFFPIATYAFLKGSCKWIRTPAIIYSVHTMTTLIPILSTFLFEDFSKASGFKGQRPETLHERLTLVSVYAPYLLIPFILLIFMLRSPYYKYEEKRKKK
Experiment [6] deals with 5-hydroxytryptamine receptor 3A (Homo sapiens) (UniProt P46098). In words: Inhibition of 5HT3 receptor (unknown origin). The conditions noted are these: concentration not given here.
Sequence of 5-hydroxytryptamine receptor 3A (Homo sapiens) (P46098 whole entry): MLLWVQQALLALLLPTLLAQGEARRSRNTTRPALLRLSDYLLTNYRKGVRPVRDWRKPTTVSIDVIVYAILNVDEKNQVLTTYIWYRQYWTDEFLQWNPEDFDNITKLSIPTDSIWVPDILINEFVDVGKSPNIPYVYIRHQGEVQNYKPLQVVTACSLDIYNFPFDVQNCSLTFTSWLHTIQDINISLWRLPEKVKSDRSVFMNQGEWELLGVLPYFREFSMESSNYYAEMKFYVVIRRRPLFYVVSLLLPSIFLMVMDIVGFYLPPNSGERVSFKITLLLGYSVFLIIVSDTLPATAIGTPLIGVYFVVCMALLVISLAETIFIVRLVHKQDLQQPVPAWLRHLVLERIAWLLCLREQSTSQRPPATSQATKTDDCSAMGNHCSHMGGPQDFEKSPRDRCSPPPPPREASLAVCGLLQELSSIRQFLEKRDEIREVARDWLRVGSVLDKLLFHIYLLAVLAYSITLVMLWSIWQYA
The target in experiment [7] is T2, Beta-1 adrenergic receptor (Homo sapiens, UniProt P08588). Nature of the experiment: Binding affinity to beta1 receptor (unknown origin) assessed as inhibition constant.
Target sequence in this assay (P08588 whole entry): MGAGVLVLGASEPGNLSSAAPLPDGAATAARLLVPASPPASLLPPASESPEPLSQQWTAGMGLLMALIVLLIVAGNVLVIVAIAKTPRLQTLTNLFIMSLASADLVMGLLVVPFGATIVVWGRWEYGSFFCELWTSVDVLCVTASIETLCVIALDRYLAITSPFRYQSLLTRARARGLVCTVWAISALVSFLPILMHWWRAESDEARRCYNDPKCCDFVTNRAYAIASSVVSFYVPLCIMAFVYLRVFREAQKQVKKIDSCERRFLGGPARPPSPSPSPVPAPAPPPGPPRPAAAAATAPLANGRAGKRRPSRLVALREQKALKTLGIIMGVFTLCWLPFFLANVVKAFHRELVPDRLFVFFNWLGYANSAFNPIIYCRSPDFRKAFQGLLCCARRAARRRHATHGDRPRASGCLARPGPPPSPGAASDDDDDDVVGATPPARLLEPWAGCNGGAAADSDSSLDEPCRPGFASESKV
Experiment [8] has as its target 5-hydroxytryptamine receptor 1B (Homo sapiens, UniProt P28222). Nature of the experiment: Inhibition of 5HT1B receptor (unknown origin). The conditions noted are these: concentration not given here.
The target of experiment [9] is Alpha-2C adrenergic receptor (Homo sapiens, UniProt P18825). In words: Binding affinity to alpha2c (unknown origin) assessed as inhibition constant.
Sequence of Alpha-2C adrenergic receptor (P18825 whole entry): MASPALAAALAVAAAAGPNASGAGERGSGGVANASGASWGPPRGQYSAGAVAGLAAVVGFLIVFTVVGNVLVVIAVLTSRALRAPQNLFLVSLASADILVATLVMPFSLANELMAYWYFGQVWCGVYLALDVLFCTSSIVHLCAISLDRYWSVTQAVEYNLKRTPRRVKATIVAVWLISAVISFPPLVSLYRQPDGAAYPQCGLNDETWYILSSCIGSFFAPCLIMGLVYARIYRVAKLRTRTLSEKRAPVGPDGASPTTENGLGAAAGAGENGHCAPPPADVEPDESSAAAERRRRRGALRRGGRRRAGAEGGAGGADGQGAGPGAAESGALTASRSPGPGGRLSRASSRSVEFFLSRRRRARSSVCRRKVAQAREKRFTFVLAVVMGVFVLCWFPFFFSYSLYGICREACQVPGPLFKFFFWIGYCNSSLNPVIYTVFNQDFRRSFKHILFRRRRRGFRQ
For experiment [10], the target named is D(4) dopamine receptor (Homo sapiens) (UniProt P21917). Nature of the experiment: Inhibition of D4 receptor (unknown origin). The conditions noted are these: concentration not given here.
Sequence of D(4) dopamine receptor (Homo sapiens) (P21917 whole entry): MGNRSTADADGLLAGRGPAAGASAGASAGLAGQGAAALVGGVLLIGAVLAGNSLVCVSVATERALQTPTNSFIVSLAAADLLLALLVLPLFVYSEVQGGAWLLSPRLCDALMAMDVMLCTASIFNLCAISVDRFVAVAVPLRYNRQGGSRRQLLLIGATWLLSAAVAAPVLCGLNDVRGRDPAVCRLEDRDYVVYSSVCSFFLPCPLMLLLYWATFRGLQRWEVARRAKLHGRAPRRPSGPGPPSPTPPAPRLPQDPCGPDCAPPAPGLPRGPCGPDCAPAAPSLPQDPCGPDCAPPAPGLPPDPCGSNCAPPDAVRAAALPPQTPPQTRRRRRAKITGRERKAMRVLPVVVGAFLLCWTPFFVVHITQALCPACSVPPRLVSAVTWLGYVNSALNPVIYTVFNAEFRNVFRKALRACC
The target in experiment [11] is 5-hydroxytryptamine receptor 3A (Homo sapiens, UniProt P46098). In words: Binding affinity to 5HT3 receptor (unknown origin) assessed as inhibition constant.
Sequence of 5-hydroxytryptamine receptor 3A (P46098 whole entry): as the sequence (P46098 whole entry) above
The target of the next experiment is D(4) dopamine receptor (Homo sapiens, UniProt P21917). Nature of the experiment: Binding affinity to D4 receptor (unknown origin) assessed as inhibition constant.
Sequence of D(4) dopamine receptor (P21917 whole entry): as the sequence (P21917 whole entry) above
In experiment [12] the target is Sigma non-opioid intracellular receptor 1 (Homo sapiens, UniProt Q99720). Nature of the experiment: Inhibition of sigma 1 receptor (unknown origin). Conditions: concentration not given here.
Sequence of Sigma non-opioid intracellular receptor 1 (Q99720 whole entry): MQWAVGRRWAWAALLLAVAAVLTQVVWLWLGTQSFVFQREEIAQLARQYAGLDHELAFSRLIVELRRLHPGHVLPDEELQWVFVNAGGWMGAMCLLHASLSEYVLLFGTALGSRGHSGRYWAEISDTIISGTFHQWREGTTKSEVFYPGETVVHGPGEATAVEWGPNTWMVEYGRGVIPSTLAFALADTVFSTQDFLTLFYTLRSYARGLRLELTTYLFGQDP
Experiment [13] deals with T2, Beta-1 adrenergic receptor. In words: Inhibition of beta1 receptor (unknown origin). The conditions noted are these: concentration not given here.
Target sequence in this assay (P08588 whole entry, looked up): as the sequence (P08588 whole entry) above
The target in experiment [14] is Sodium-dependent serotonin transporter (Homo sapiens, UniProt P31645). In words: Binding affinity to SERT receptor (unknown origin) assessed as inhibition constant.
A further experiment addresses D(3) dopamine receptor (Homo sapiens, UniProt P35462). In words: Binding affinity to D3 receptor (unknown origin) assessed as inhibition constant.

Sequence of Histamine H4 receptor (Homo sapiens) (Q9H3N8 whole entry): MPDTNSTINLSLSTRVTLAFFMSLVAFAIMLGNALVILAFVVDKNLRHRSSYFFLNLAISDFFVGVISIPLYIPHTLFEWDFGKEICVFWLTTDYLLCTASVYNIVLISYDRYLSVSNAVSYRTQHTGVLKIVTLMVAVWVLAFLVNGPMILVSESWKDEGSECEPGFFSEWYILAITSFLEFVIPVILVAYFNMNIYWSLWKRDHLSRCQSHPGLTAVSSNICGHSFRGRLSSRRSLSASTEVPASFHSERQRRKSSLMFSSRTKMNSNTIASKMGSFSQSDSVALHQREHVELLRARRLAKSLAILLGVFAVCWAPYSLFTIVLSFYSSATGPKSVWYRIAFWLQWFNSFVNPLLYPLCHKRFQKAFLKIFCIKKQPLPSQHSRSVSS
Sequence of D(3) dopamine receptor (P35462 whole entry): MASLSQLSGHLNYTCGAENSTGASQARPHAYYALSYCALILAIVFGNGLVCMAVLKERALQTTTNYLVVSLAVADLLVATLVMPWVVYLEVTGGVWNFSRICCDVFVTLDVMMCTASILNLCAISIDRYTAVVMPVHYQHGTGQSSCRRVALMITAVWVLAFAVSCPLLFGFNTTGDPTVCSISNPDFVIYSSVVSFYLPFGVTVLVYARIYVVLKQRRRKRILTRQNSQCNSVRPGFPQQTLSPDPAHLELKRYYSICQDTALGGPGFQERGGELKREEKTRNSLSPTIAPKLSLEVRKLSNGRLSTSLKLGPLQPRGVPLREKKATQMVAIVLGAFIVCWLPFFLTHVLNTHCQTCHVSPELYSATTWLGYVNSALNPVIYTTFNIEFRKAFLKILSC
Sequence of 5-hydroxytryptamine receptor 1B (P28222 whole entry): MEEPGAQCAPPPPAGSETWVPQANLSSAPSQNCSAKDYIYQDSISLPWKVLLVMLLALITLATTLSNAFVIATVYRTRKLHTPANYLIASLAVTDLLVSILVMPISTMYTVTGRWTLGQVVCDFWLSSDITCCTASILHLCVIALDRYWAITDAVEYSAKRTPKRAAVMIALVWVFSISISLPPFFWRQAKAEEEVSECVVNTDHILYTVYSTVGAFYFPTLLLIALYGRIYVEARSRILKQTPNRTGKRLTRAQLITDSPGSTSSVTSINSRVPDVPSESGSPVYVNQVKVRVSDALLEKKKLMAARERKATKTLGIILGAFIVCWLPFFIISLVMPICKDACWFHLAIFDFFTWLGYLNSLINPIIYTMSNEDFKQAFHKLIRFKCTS

Regarding `COc1cc(OC)c(C2NCCc3c2[nH]c2ccc(F)cc32)cc1OC` (configuration not stated), the inhibition in [1], in experiment [3], in [4], in experiment [6], in experiment [8] and in [10] was < 50% throughout. Moreover, in [2], the Emax is 111%. Further, the Ki stood at 2330 nM in experiment [5], 961 nM in experiment [7] and 964 nM in [9].

As for `COc1cc(OC)c(C2NCCc3c2[nH]c2ccc(Cl)cc32)cc1OC` (configuration not stated), the inhibition in experiment [1], in experiment [4] and in experiment [10] was < 50% throughout. The Emax in experiment [2] is 97.5%. Moreover, the Ki in [7] came out at 1470 nM; in [11], 2780 nM.

With `COc1ccc(C2NCCc3c2[nH]c2ccc(F)cc32)c(O)c1` (configuration not stated), the inhibition in experiment [1], in experiment [12], in [4], in experiment [6] and in experiment [13] was < 50% each time. In [2], the Emax was determined as 105%. Besides, the results for the Ki (at D(4) dopamine receptor; in experiment [14]) were 362 nM and 1840 nM, respectively.

As to `COc1ccc(C2NCCc3c2[nH]c2ccc(Cl)cc32)c(O)c1` (configuration not stated), the inhibition in experiment [1] was < 50%; in [4], < 50%; in [13] it was < 50%; in experiment [14] (filed as agonist, concentration not given here), < 50%. The Emax in experiment [2] was 97.2%. Besides, the figures for the Ki (at D(4) dopamine receptor; in experiment [11]; on D(3) dopamine receptor) were 609 nM, 2790 nM and 1250 nM, respectively.
